Test results reported in patent US6599900B2, “1-oxa-3,9-diaza-spiro[5,5]undecan-2-ones” (Syntex (U.S.A.) LLC, priority 2001, dated 2003).
Structures can show the parent of a compound that is named as a salt.

Molecular target: T1, human NK1 receptor (Homo sapiens, UniProt P25103)
T1 construct: expressed in transfected cells; host or cells: CHO cells infected with the Semliki virus expression system; membrane suspension used
Experiment: [3H]substance P binding at human NK1 receptors in CHO cells
Conditions: affinity to the NK-1 receptor; [3H]substance P 0.6 nM displacement, CHO cell membranes, 60 min at room temperature
Method: The affinity of test compounds for the NK1 receptor was evaluated at human NK1 receptors in CHO cells infected with the human NK1 receptor (using the Semliki virus expression system) and radiolabelled with [^3H]substance P (final concentration 0.6 nM). Binding assays were performed in HEPES buffer (50 mM, pH 7.4) containing BSA (0.04%) leupeptin (8 μg/ml), MnCl2 (3 mM) and phosphoramidon (2 μM). Binding assays consisted of 250 μl of membrane suspension (1.25×10^5 cells/assay tube), […] of buffer of displacing agent and 125 μl of [^3H]substance P. Displacement curves were determined with at least seven concentrations of the compound. The assay tubes were incubated for 60 min at room temperature after which time the tube contents were rapidly filtered under vacuum through GF/C filters presoaked for 60 min with PEI (0.3%) with 2×2 ml washes of HEPES buffer (50 mM, pH 7.4). The radioactivity retained on the filters was measured by scintillation counting. All assays were performed in triplicate in at least 2 separate experiments.

T1 sequence (P25103 whole entry): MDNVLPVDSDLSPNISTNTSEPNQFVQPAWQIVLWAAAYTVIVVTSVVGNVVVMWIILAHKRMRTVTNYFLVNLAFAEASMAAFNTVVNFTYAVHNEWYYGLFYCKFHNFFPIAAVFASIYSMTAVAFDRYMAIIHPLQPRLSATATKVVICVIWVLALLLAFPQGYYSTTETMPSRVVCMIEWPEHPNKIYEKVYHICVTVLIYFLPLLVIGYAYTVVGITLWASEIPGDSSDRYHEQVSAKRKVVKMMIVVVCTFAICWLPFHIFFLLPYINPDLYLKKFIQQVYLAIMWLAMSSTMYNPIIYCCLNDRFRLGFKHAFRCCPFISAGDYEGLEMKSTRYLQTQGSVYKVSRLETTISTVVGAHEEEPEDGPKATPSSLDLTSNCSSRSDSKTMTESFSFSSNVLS

SMILES	Ki [nM]
O=C1NCC(c2ccccc2Cl)C2(CCN(C(=O)c3cc(C(F)(F)F)cc(C(F)(F)F)c3)CC2)O1 (racemic) [Example 11, (5RS)-9-(3,5-bis-trifluoromethyl-benzoyl)-5-(2-chloro-phenyl)-1-oxa-3,9-diaza-spiro[5.5]undecan-2-one]	23.4
CN(C)C(=O)CN1CC(c2ccccc2)C2(CCN(C(=O)c3cc(C(F)(F)F)cc(C(F)(F)F)c3)CC2)OC1=O (racemic) [Example 14, (5RS)-2-[9-(3,5-bis-trifluoromethyl-benzoyl)-2-oxo-5-phenyl-1-oxa-3,9-diaza-spiro[5.5]undec-3-yl]-N,N-dimethyl-acetamide]	6.61
CN(C)CCN1CC(c2ccccc2)C2(CCN(C(=O)c3cc(C(F)(F)F)cc(C(F)(F)F)c3)CC2)OC1=O (racemic) [Example 28, (5RS)-9-(3,5-bis-trifluoromethyl-benzoyl)-3-(2-dimethylamino-ethyl)-5-phenyl-1-oxa-3,9-diaza-spiro[5.5]undecan-2-one hydrochloride]	7.41
O=C1NCC(c2cccc(F)c2F)C2(CCN(C(=O)c3cc(C(F)(F)F)cc(C(F)(F)F)c3)CC2)O1 (racemic) [Example 5, (5RS)-9-(3,5-bis-trifluoromethyl-benzoyl)-5-(2,3-difluoro-phenyl)-1-oxa-3,9-diaza-spiro[5.5]undecan-2-one]	8.51
COc1cccc(C2CNC(=O)OC23CCN(C(=O)c2cc(C(F)(F)F)cc(C(F)(F)F)c2)CC3)c1 (racemic) [Example 10, (5RS)-9-(3,5-bis-trifluoromethyl-benzoyl)-5-(3-methoxy-phenyl)-1-oxa-3,9-diaza-spiro[5.5]undecan-2-one]	14.8
CN1CCN(CCCN2CC(c3ccccc3)C3(CCN(C(=O)c4cc(C(F)(F)F)cc(C(F)(F)F)c4)CC3)OC2=O)CC1 (racemic) [Example 29, (5RS)-9-(3,5-bis-trifluoromethyl-benzoyl)-3-[3-(4-methyl-piperazin-1-yl)-propyl]-5-phenyl-1-oxa-3,9-diaza-spiro[5.5]undecan-2-one]	10.5
O=C1NCC(c2ccc(Cl)cc2)C2(CCN(C(=O)c3cc(C(F)(F)F)cc(C(F)(F)F)c3)CC2)O1 (racemic) [Example 8, (5RS)-9-(3,5-bis-trifluoromethyl-benzoyl)-5-(4-chloro-phenyl)-1-oxa-3,9-diaza-spiro[5.5]undecan-2-one]	11
O=C1OC2(CCN(C(=O)c3cc(C(F)(F)F)cc(C(F)(F)F)c3)CC2)C(c2ccccc2)CN1CCN1CCOCC1 (stereo not drawn) [Example 27, (5RS)-9-(3,5-2is-trifluoromethyl-benzoyl)-3-(2-morpholin-4-yl-ethyl)-5-phenyl-1-oxa-3,9-diaza-spiro[5.5]undecan-2-one hydrochloride]	6.31
COc1nc(OC)nc(N2CC(c3ccccc3)C3(CCN(C(=O)c4cc(C(F)(F)F)cc(C(F)(F)F)c4)CC3)OC2=O)n1 (stereo not drawn) [Example 17, (5RS)-9-(3,5-bis-trifluoromethyl-benzoyl)-3-(4,6-dimethoxy-[1,3,5]triazin-2-yl)-5-phenyl-oxa-1-3,9-diaza-spiro[5.5]undecan-2-one]	13.2
Cc1ccccc1C1CNC(=O)OC12CCN(C(=O)c1cc(C(F)(F)F)cc(C(F)(F)F)c1)CC2 (racemic) [Example 7, (5RS)-9-(3,5-bis-trifluoromethyl-benzoyl)-5-o-tolyl-1-oxa-3,9-diaza-spiro[5.5]undecan-2-one]	10.7
O=C1OC2(CCN(C(=O)c3cc(C(F)(F)F)cc(C(F)(F)F)c3)CC2)C(c2ccccc2)CN1CCO (racemic) [Example 22, (5RS)-9-(3,5-bis-trifluoromethyl-benzoyl)-3-(2-hydroxy-ethyl)-5-phenyl-1-oxa-3,9-diaza-spiro[5.5]undecan-2-one]	15.8
O=C1OC2(CCN(C(=O)c3cc(C(F)(F)F)cc(C(F)(F)F)c3)CC2)C(c2ccccc2)CN1CCCN1CCOCC1 (racemic) [Example 24, (5RS)-9-(3,5-bis-trifluoromethyl-benzoyl)-3-(3-morpholin-4-yl-propyl)-5-phenyl-1-oxa-3,9-diaza-spiro[5.5]undecan-2-one]	3.47
O=C1OC2(CCN(C(=O)c3cc(C(F)(F)F)cc(C(F)(F)F)c3)CC2)C(c2ccccc2)CN1CCCO (racemic) [Example 21, (5RS)-9-(3,5-bis-trifluoromethyl-benzoyl)-3-(3-hydroxy-propyl)-5-phenyl-1-oxa-3,9-diaza-spiro[5.5]undecan-2-one]	6.76
O=C1NCC(c2cccc(Cl)c2)C2(CCN(C(=O)c3cc(C(F)(F)F)cc(C(F)(F)F)c3)CC2)O1 (racemic) [Example 1, (5RS)-9-(3,5-bis-trifluoromethyl-benzoyl)-5-(3-chloro-phenyl)-1-oxa-3,9-diaza-spiro[5.5]undecan-2-one]	5.13
O=C1NCC(c2cc(F)ccc2F)C2(CCN(C(=O)c3cc(C(F)(F)F)cc(C(F)(F)F)c3)CC2)O1 (racemic) [Example 6, (5RS)-9-(3,5-bis-trifluoromethyl-benzoyl)-5-(2,5-difluoro-phenyl)-1-oxa-3,9-diaza-spiro[5.5]undecan-2-one]	9.77
O=C1OC2(CCN(C(=O)c3cc(C(F)(F)F)cc(C(F)(F)F)c3)CC2)C(c2ccc(F)c(F)c2)CN1CC(F)F (racemic) [Example 15, (5RS)-9-(3,5-bis-trifluoromethyl-benzoyl)-3-(2,2-difluoro-ethyl)-5-(3,4-difluoro-phenyl)-1-oxa-3,9-diaza-spiro[5.5]undecan-2-one]	11.5
O=C1OC2(CCN(C(=O)c3cc(C(F)(F)F)cc(C(F)(F)F)c3)CC2)C(c2ccccc2)CN1Cc1cccnc1 (racemic) [Example 16, (5RS)-9-(3,5-bis-trifluoromethyl-benzoyl)-5-phenyl-3-pyridin-3-ylmethyl-1-oxa-3,9-diaza-spiro[5.5]undecan-2-one]	6.17
Cc1ccc(C2CNC(=O)OC23CCN(C(=O)c2cc(C(F)(F)F)cc(C(F)(F)F)c2)CC3)cc1C (racemic) [Example 9, (5RS)-9-(3,5-bis-trifluoromethyl-benzoyl)-5-(3,4-dimethyl-phenyl)-1-oxa-3,9-diaza-spiro[5.5]undecan-2-one]	12.6
O=C1OC2(CCN(C(=O)c3cc(C(F)(F)F)cc(C(F)(F)F)c3)CC2)C(c2ccccc2)CN1CCN1CCCC1 (racemic) [Example 30, (5RS)-9-(3,5-bis-trifluoromethyl-benzoyl)-5-phenyl-3-(2-pyrrolidin-1-yl-ethyl)-1-oxa-3,9-diaza-spiro[5.5]undecan-2-one; hydrochloride]	11.5
O=C1NCC(c2ccccc2)C2(CCN(C(=O)c3cc(C(F)(F)F)cc(C(F)(F)F)c3)CC2)O1 (racemic) [Example 4, (5RS)-9-(3,5-bis-trifluoromethyl-benzoyl)-5-phenyl-1-oxa-3,9-diaza-spiro[5.5]undecan-2-one]	5.13
O=C1NCC(c2ccc(F)c(F)c2)C2(CCN(C(=O)c3cc(C(F)(F)F)cc(C(F)(F)F)c3)CC2)O1 (racemic) [Example 2, (5RS)-9-(3,5-bis-trifluoromethyl-benzoyl)-5-(3,4-difluoro-phenyl)-1-oxa-3,9-diaza-spiro[5.5]undecan-2-one]	1.7
CN1CC(c2ccc(F)c(F)c2)C2(CCN(C(=O)c3cc(C(F)(F)F)cc(C(F)(F)F)c3)CC2)OC1=O (racemic) [Example 20, (5RS)-9-(3,5-bis-trifluoromethyl-benzoyl)-5-(3,4-difluoro-phenyl)-3-methyl-1-oxa-3,9-diaza-spiro[5.5]undecan-2-one]	30.9
COCCN1CC(c2ccc(F)c(F)c2)C2(CCN(C(=O)c3cc(C(F)(F)F)cc(C(F)(F)F)c3)CC2)OC1=O (racemic) [Example 19, (5RS)-9-(3,5-bis-trifluoromethyl-benzoyl)-5-(3,4-difluoro-phenyl)-3-(2-methoxy-ethyl)-1-oxa-3,9-diaza-spiro[5.5]undecan-2-one]	19.1
CN1CC(c2ccccc2)C2(CCN(C(=O)c3cc(C(F)(F)F)cc(C(F)(F)F)c3)CC2)OC1=O (racemic) [Example 18, (5RS)-9-(3,5-bis-trifluoromethyl-benzoyl)-3-methyl-5-phenyl-1-oxa-3,9-diaza-spiro[5.5]undecan-2-one]	15.5
O=C1OC2(CCN(C(=O)c3cc(C(F)(F)F)cc(C(F)(F)F)c3)CC2)C(c2ccccc2)CN1CCCN1CCCC1 (racemic) [Example 23, (5RS)-9-(3,5-bis-trifluoromethyl-benzoyl)-5-phenyl-3-(3-pyrrolidin-1-yl-propyl)-1-oxa-3,9-diaza-spiro[5.5]undecan-2-one]	3.39
O=C(c1cc(C(F)(F)F)cc(C(F)(F)F)c1)N1CCC2(CC1)OC(=O)N(C1CCOCC1)CC2c1ccccc1 (racemic) [Example 13, (5RS)-9-(3,5-bis-trifluoromethyl-benzoyl)-5-phenyl-3-(tetrahydro-pyran-4-yl)-1-oxa-3,9-diaza-spiro[5.5]undecan-2-one]	19.1
O=C1NCC(c2ccc(Cl)c(Cl)c2)C2(CCN(C(=O)c3cc(C(F)(F)F)cc(C(F)(F)F)c3)CC2)O1 (racemic) [Example 3, (5RS)-9-(3,5-bis-trifluoromethyl-benzoyl)-5-(3,4-dichloro-phenyl)-1-oxa-3,9-diaza-spiro[5.5]undecan-2-one]	2.63
CN1CCC(N2CC(c3ccccc3)C3(CCN(C(=O)c4cc(C(F)(F)F)cc(C(F)(F)F)c4)CC3)OC2=O)CC1 (racemic) [Example 12, (5RS)-9-(3,5-bis-trifluoromethyl-benzoyl)-3-(1-methyl-piperidin-4-yl)-5-phenyl-1-oxa-3,9-diaza-spiro[5.5]undecan-2-one]	3.89
